Results on 39 compounds are retold here after PubChem BioAssay (NCI).

The structures appear in SMILES notation. Values joined by “and” are separate entries in the source; they are usually repeats but may differ in a detail not shown here. Identical values can stand only once.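 Cells were grown in 96-well plates and exposed to each compound for 48 hours at five concentrations; endpoints were interpolated linearly between bracketing concentrations, or set to the highest concentration if not reached. GI50 is the concentration that inhibits growth by half. TGI: total growth inhibition.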

The assay deals with MDA-MB-468 breast. Briefly: NCI-60 cell line screen, 48 h.
Regarding `COc1ccc2cc(C(=O)N3CCC([C@@H](C)C(=O)NCc4ccc5c(c4)OCO5)CC3)[nH]c2c1`, the GI50 was 86.2 µM and the TGI is above 100 µM.
For the compound `CCCCCCCC(=O)Nc1nc2[nH]c(CN3CCN(Cc4cccc(I)c4)CC3)c(CN3CCN(Cc4cccc(I)c4)CC3)c2c(=O)[nH]1`, the GI50 was 0.858 µM and the TGI was determined as 1.64 µM.
`N[C@@H](Cc1c[nH]c2ccccc12)C(=O)NC1CCN(Cc2c[nH]c3ccc(Cl)cc23)CC1`: the GI50 was 2.43 µM and the TGI was determined as 5.74 µM.
The corresponding values for `COc1cc(OCCCN2CCCC2)ccc1Nc1ncc(Cl)c(Nc2ccccc2P(C)(C)=O)n1` are 1.22 µM and 3.64 µM.
For `O=C(Nc1ccc(Cl)cc1)c1cc(NCc2cc(O)ccc2O)ccc1O`, the GI50 is 4.81 µM and the TGI is 26.6 µM.
Consider `NC(CCl)=NCC12CC3CC(CC(C3)C1)C2`, for which the GI50 is 0.827 µM and the TGI was 6.95 µM.
The like results for `N#Cc1nc(-c2ccccc2)oc1S(=O)(=O)N1CCN(CCc2ccccn2)CC1` were, in that order, 1.6 µM and 3.45 µM.
As to `CCCCNC(=O)Oc1ccc(/C(=C(\C)c2ccc(OC)cc2)c2ccc(OCCN3CCCCC3)cc2)cc1`, the GI50 is 2.08 µM and the TGI worked out at 5.07 µM.
`FC(F)(F)c1cccc(Oc2ccc(Nc3ncnc4ccc(OCCCN5CCOCC5)cc34)cc2Cl)c1`: the GI50 is 0.48 µM and the TGI stood at 2.85 µM.
The like results for `O=C1NN(C(=O)c2ccccc2)C(c2ccc(Cl)c(Cl)c2)=C/C1=C\c1ccccc1[N+](=O)[O-]` were, in that order, 6.14 µM and above 6.75 µM.
In the case of `N#Cc1c(N)c(C(=O)c2ccc3c(c2)OCCO3)n2c1CCCC2`, the GI50 was 2.47 µM and the TGI amounted to 23.7 µM.
The corresponding values for `CO[C@H]1/C=C/O[C@@]2(C)Oc3c(C)c(O)c4c(O)c(c(/C=N/N5C(C)CN(Cc6ccc(C#N)cc6)CC5C)c(O)c4c3C2=O)NC(=O)/C(C)=C\C=C\[C@H](C)[C@H](O)[C@@H](C)[C@@H](O)[C@@H](C)[C@H](OC(C)=O)[C@@H]1C` (stereo partly drawn) are 11 µM and 39.9 µM.
The like results for `COC(=O)[C@@H](C)C[C@H](Cc1ccc(F)cc1)NC(=O)c1csc([C@@H](C[C@H](C(C)C)N(C)C(=O)[C@@H](NC(=O)[C@H]2CCCCN2C)C2CC2)OC(C)=O)n1` were, in that order, 0.138 µM and above 25 µM.
With `COc1ccc(-c2oc3ncnc(N)c3c2-c2ccc(NC(=O)Nc3cc(C(F)(F)F)ccc3F)cc2)cc1`, the GI50 was 0.903 µM and the TGI is 2.31 µM.
The corresponding values for `CC1(C)N=C(N)N=C(N)N1c1cccc(CCCCc2ccc(Cl)c(S(=O)(=O)F)c2)c1` are 10.6 µM and 24.5 µM.
The corresponding values for `O=C(N/N=C/c1ccc([N+](=O)[O-])cc1)c1ccccc1Nc1ccnc(C(F)(F)F)c1` are 15.8 µM and 41.3 µM.
As to `O=c1oc2ccc(F)cc2c(=O)n1-c1ccc(I)cc1F`, the GI50 was 0.375 µM and the TGI was determined as 2.45 µM.
Consider `O=C(N/N=C\c1ccc(N(CCCl)CCCl)cc1)c1cccnc1`, for which the GI50 is 11 µM and the TGI was found to be 59.6 µM.
As to `CCCCCCCCCCCCCCCCCC1=NC(C)(C)CN1C(C)(C)CO`, the GI50 was 1.21 µM and the TGI worked out at 2.56 µM.
Consider `CC[C@H](C)[C@H](NC(=O)c1ncccn1)C(=O)N(C)[C@H](C[C@@H](OC(C)=O)c1nc(C(=O)N[C@@H](Cc2ccccc2)C[C@H](C)C(=O)OC)cs1)C(C)C`, for which the GI50 was 0.757 µM and the TGI is above 25 µM.
The corresponding values for `COc1cc2nc(Cl)nc(Nc3cccc(C4=Nc5c(N)nc(N)nc5NC(c5ccc(F)cc5)C4)c3)c2cc1OC` (stereo not drawn) are 1.79 µM and 3.39 µM.
As for `Cc1cc(C)c([I+]c2c(C)cc(C)cc2C)c(C)c1`, the GI50 is 0.134 µM and the TGI is 0.672 µM.
Regarding `O=c1cc(-c2ccccc2)oc2c(O)c(O)ccc12`, the GI50 is 14.3 µM and the TGI amounted to 79.2 µM.
The like results for `COc1ccc(-c2c(NC(=O)Nc3ccc(Cl)c(C(F)(F)F)c3)cnn2-c2ccc(S(N)(=O)=O)cc2)cc1` were, in that order, 2.05 µM and 6.88 µM.
The corresponding values for `COc1ccc2c(c1)C(=O)/C(=C/c1ccc(O)cc1)O2` are 2.4 µM and 12.4 µM.
`C#Cc1cccc(Nc2nc(C)nc3cc(NC(=O)CCl)ccc23)c1`: the GI50 was 0.77 µM and the TGI was 2.18 µM.
Turning to `Oc1c(CN2CCCCC2)ccc2cccnc12`, the GI50 was 4.89 µM and the TGI came to 22.4 µM.
The like results for `C[C@]1(c2nc3c(C(N)=O)cccc3[nH]2)CCCN1` were, in that order, 29.7 µM and above 100 µM.
The like results for `CC1(C)CC[C@]2(C(=O)NCCNCCN)CC[C@]3(C)C(=CC[C@@H]4[C@@]5(C)CCC(=O)C(C)(C)[C@@H]5CC[C@]43C)[C@@H]2C1` were, in that order, 1.71 µM and 3.29 µM.
The like results for `COc1cc(-c2n/c(=C\c3c(O)[nH]c4ccccc34)cc3c2=Nc2ccccc2-3)ccc1F` were, in that order, 2.61 µM and 16.7 µM.
Consider `Cn1cc(-c2ncnc3ccc(-c4cnc(Cl)c(NS(C)(=O)=O)c4)cc23)c2ccccc21`, for which the GI50 was 0.183 µM and the TGI is 2.35 µM.
`COC(=O)[C@@H](C)C[C@H](Cc1ccccc1)NC(=O)c1csc([C@@H](C[C@H](C(C)C)N(C)C(=O)[C@@H](NC(=O)[C@H]2CCCCN2C)c2ccc(F)cc2)OC(C)=O)n1`: the GI50 is 0.00417 µM and 0.0025 µM and 0.0163 µM; the TGI was 25 µM and > 100 µM.
For the compound `COC1=CC(c2ccc[nH]2)=N/C1=C\c1[nH]c(C)c(CC(=O)NCc2ccccc2)c1C`, the GI50 is 1.17 µM and the TGI came out at 2.63 µM.
The like results for `COc1nc2c(c(=O)n1C)CN(c1ccccc1)C(=O)CN2C` were, in that order, 13.3 µM and 80.9 µM.
In the case of `NC(=O)c1ccc(I)c([N+](=O)[O-])c1`, the GI50 was 24.4 µM and the TGI was above 65.6 µM.
As for `C=C[C@@H]1CCC/C=C/[C@@H]2C[C@H](O)C[C@H]2[C@H](O)/C=C/C(=O)O1`, the GI50 is 0.216 µM and the TGI was determined as 0.611 µM.
Consider `CCOc1ccc(Nc2ccnc3cc(Cl)ccc23)cc1`, for which the GI50 is 43.1 µM and the TGI is above 100 µM.
The like results for `Nc1ccccc1NC(=O)c1ccc(NC(=O)C/C=C/c2cccnc2)cc1` were, in that order, 0.915 µM and 2.66 µM.
For the compound `Cc1cccc2c(=O)c3c(sc12)c(NCCCN)nc1ccccc13`, the GI50 was 1.43 µM and the TGI worked out at 2.94 µM.
